In patent publication US20100298141A1, “SUBSTITUTED PYRIDINE N-OXIDE HERBICIDES” (E. I. DU PONT DE NEMOURS AND COMPANY, priority 2007, published 2010):

Tests used:
downy bromegrass = assay: Test D preemergence test; format: in vivo, Bromus tectorum; details: scale 0 to 100
Excerpt: (§1) Seeds of plant species selected from annual bluegrass (Poa annua), blackgrass (Alopecurus myosuroides), downy bromegrass (Bromus tectorum), field violet (Viola arvensis), green foxtail (Setaria viridis), Italian ryegrass (Lolium multiflorum), littleseed canarygrass (Phalaris minor), spring wheat (Triticum aestivum), wild oat (Avena fatua), […]), winter barley (Hordeum vulgare), and winter wheat (Triticum aestivum) were planted and treated preemergence with test chemicals formulated in a non-phytotoxic solvent mixture which included a surfactant. […] A dash (-) response means no test result.

windgrass = assay: Test D preemergence test; format: in vivo, Apera spica-venti; details: scale 0 to 100
Excerpt: as §1

common chickweed = assay: Test F preemergence test; format: in vivo, Stellaria media; details: scale 0 to 100
How it was run: (§2)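 Visual ratings relative to controls, taken after 14 to 21 days in a greenhouse. Test chemicals, formulated in a surfactant-containing non-phytotoxic solvent mixture, were applied preemergence to sown seeds or postemergence to sugarcane plants.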

johnsongrass = assay: Test F preemergence test; format: in vivo, Sorghum halepense; details: scale 0 to 100
How it was run: as §2

Russian thistle = assay: Test F preemergence test; format: in vivo, Salsola kali; details: scale 0 to 100
Excerpt: Seeds of plant species selected from bermudagrass (Cynodon dactylon), Surinam grass (Brachiaria decumbens), large crabgrass (Digitaria sanguinalis), green foxtail (Setaria viridis), goosegrass (Eleusine indica), johnsongrass (Sorghum halepense), kochia (Kochia scoparia), pitted morningglory (Ipomoea lacunosa), purple nutsedge (Cyperus rotundus), common ragweed (Ambrosia elation), mustard (Brassica nigra), guineagrass (Panicum maximum), […] (Paspalum dilatatum), barnyardgrass (Echinochloa crus-galli), southern sandbur (Cenchrus echinatus), common sowthistle (Sonchus oleraceous), prickly […] spinosa), Italian ryegrass (Lolium multiflorum), common purslane (Portulaca oleracea), broadleaf signalgrass (Brachiaria platyphylla), common groundsel (Senecio vulgaris), common chickweed (Stellaria media), Virginia dayflower (Commelina virginica), annual bluegrass (Poa annua), naked crabgrass (Digitaria nuda), […] cochinchinensis), quackgrass (Elytrigia repens), Canada horseweed (Conyza canadensis), field bindweed (Convolvulus arvensis), […] (Bidens bipinnata), common mallow (Malva sylvestris), Russian thistle (Salsola kali), and sugarcane (Saccharum officinarum) were planted and treated preemergence with test chemicals formulated in a non-phytotoxic solvent mixture which included a surfactant. At a different time, sugarcane was treated with postemergence applications of some of the test chemicals formulated in the same manner. Plants were approximately 3- to 4-leaf stage for the postemergence treatments. Treated plants and controls were maintained in a greenhouse for 14 to 21 days, after which time all species were compared to controls and visually evaluated. […] A dash (-) response means no test result.

spanishneedles = assay: Test F preemergence test; format: in vivo, Bidens bipinnata; details: scale 0 to 100; for Plant response rating, Spanishneedles: Preemergence
How it was run: as §2

SMILES | Plant response rating, Bromegrass, Downy (downy bromegrass; 31 g ai/ha) | Plant response rating, Bromegrass, Downy (downy bromegrass; 62 g ai/ha) | Plant response rating, Bromegrass, Downy (downy bromegrass; 125 g ai/ha) | Plant response rating, Bromegrass, Downy (downy bromegrass; 250 g ai/ha) | Plant response rating, Windgrass (windgrass; 31 g ai/ha) | Plant response rating, Windgrass (windgrass; 62 g ai/ha) | Plant response rating, Windgrass (windgrass; 125 g ai/ha) | Plant response rating, Windgrass (windgrass; 250 g ai/ha) | Johnsongrass plant response rating (johnsongrass; 62 g ai/ha, Preemergence) | Plant response rating, Johnsongrass (johnsongrass; Preemergence, 31 g ai/ha) | further results
Cn1nc(C(F)(F)F)c(C(Cl)S(=O)(=O)c2cccc[n+]2[O-])c1Cl (stereo not shown) [Compound 12] | 0 | 0 | 60 | 60 | 100 | 100 | 100 | 100 | – | – | –
Cc1cc[n+]([O-])c(S(=O)(=O)C(C)c2c(C(F)(F)F)nn(C)c2Cl)c1 (racemic) [Compound 14] | 0 | 0 | 60 | 60 | 0 | 75 | 100 | 100 | – | – | –
Cn1nc(C(F)(F)F)c(CS(=O)(=O)c2cccc[n+]2[O-])c1OC(F)F [Compound 4] | 30 | 30 | 30 | 30 | 90 | 100 | 100 | 100 | 95 | 90 | Plant response rating, Chickweed (common chickweed; 8 g ai/ha, preemergence): 60; Chickweed plant response rating (common chickweed; 62 g ai/ha, Preemergence): 100; Plant response rating, Chickweed (common chickweed; Preemergence, 16 g ai/ha): 100; Plant response rating, Chickweed (common chickweed; Preemergence, 31 g ai/ha): 100; Plant response rating, Johnsongrass (johnsongrass; 8 g ai/ha, preemergence): 5; Plant response rating, Johnsongrass (johnsongrass; Preemergence, 16 g ai/ha): 75; Plant response rating, Russian Thistle (Russian thistle; 8 g ai/ha, preemergence): 0; Russian Thistle plant response rating (Russian thistle; 62 g ai/ha, Preemergence): 100; Plant response rating, Russian Thistle (Russian thistle; Preemergence, 16 g ai/ha): 0; Plant response rating, Russian Thistle (Russian thistle; Preemergence, 31 g ai/ha): 100
Cn1nc(C(F)(F)F)c(CS(=O)(=O)c2ccc(Cl)c[n+]2[O-])c1OC(F)F [Compound 7] | 0 | 20 | 25 | 35 | 65 | 100 | 100 | 100 | – | – | –
CC(c1c(C(F)(F)F)nn(C)c1OCC(F)(F)F)S(=O)(=O)c1cccc[n+]1[O-] (racemic) [Compound 33] | – | – | – | – | – | – | – | – | 100 | 60 | Plant response rating, Johnsongrass (johnsongrass; 16 g ai/ha, preemergence): 30; Johnsongrass plant response rating (johnsongrass; 125 g ai/ha, preemergence): 100; Plant response rating, Russian Thistle (Russian thistle; 16 g ai/ha, preemergence): 0; Spanishneedles plant response rating (spanishneedles; 125 g ai/ha, preemergence): 65; Plant response rating, Spanishneedles (spanishneedles; 62 g ai/ha): 35; Plant response rating, Spanishneedles (spanishneedles; 31 g ai/ha): 35
